US20070213280A1, “Steroidal Saponins Compound, the Process for Producing the Same and the Use Thereof” (GUILIN INNOVATIVE MEDICINES INVESTMENT LTD., CO., priority 2004, published 2007)
Structures can show the parent of a compound that is named as a salt.

Columns and labels:
[1] = tested on: acute miocardial infarction caused by ligation of coronary artery; assay: Acute miocardial infarction by coronary artery ligation in canines (Example 3); assay type: in vivo, Adult hybrid canines; settings: canine; for Infarction size/heart size (%) / Infarction size/ventricles size (%): n=2
Protocol: (§1) Methods: Applying the model of acute miocardial infarction caused by ligation of coronary artery, detecting miocardial infarction scope, coronary arterial flow and myocardial consumption of oxygen to observe the curative effect of MPD injection.
Canine was anaesthetized by 3% Pentobarbital Sodium (1 mL/kg), opening the chest, exposing the heart and making up a arcula cordis bed; leading on an epicardial electrode and then ligating the root of the left anterior descending of coronary artery (LADCA). Venous cannula on thigh was administered to inject drug, arterial cannula on cervical and pipe from external jugular vein to vena coronaria sinus were administered, thus the blood was obtained separately and AtV oxygen content were measured.
2.2.3 Six canines were randomly divided into model control group (injecting physiological saline 1 mL/1 kg by femoral vein), positive control group (Diltiazem Hydrochloride solution 0.5 mg/kg) and MPD treated group (20 mg/kg by femoral vein), two canines per group. The data of N-ST, Σ-ST, the blood oxygen content of vena coronaria sinus and artery, and the scope of miocardial infarction of pro-administration were collected after administration at once, and 5, 15, 30, 60, 120, 180 minutes after administration.
Epicardial electrogram: recording the change of N-ST and Σ-ST.
(§2) Determining the scope of miocardial infarction (N-BT staining method): quickly taking out the heart from the executed animal, then washing by physiologic saline and dewatering with filter paper, the heart was cut into 4 pieces uniformly from apex of heart to ligating thread, then the pieces were put into N-BT staining solution, keeping in common temperature, avoiding light in 2 minutes. Then measuring the size of each slice, and the size of miocardial infarction (non-staining zone with N-BT) by colorful multimedia patho-image analytical system, total area of ventricular muscle, total area of infarction of ventricular muscle, and the ratio of miocardial infarction size relative to the size of ventricles were measured respectively.

[2] = tested on: acute miocardial infarction caused by ligation of coronary artery; assay: Acute miocardial infarction by coronary artery ligation in rats, MPD injection (Example 3); assay type: in vivo, Wistar rats; settings: rat, n=10
Protocol: as §1
(§3) Rat was anaesthetized by 3.5% chloral hydrate (10 mL/kg, by weight), then linking to electric-respirator, scraping off the fur of chest, opening thoracic cavity, exposing cardiac pericardium and then ligating the root of the left anterior descending of coronary artery (LADCA).
2.2.1 Preliminary experiment: twenty rats were randomly divided into model control group (injecting physiological saline 3 mL/kg by vena caudalis) and MPD treated group (40 mg/kg, i.v), ten rats per group.
2.2.2 Repeated experiment: fifty rats were randomly divided into model control group (injecting physiological saline 3 ml/kg by vena caudalis), Di'ao Xinxuekang group (administering 40 mg/kg by intragastric administration), MPD dose-intensive group (80 mg/kg by vena caudalis injection), MPD moderate dose group (40 mg/kg) and MPD low-dose group (20 mg/kg), ten rats per group. Rats were treated after 30 minutes of preparing model successfully, and were executed after 24 hours, and observing the results.
as §2

Rat model of AMI [3] = assay: Rat model of AMI by ligating of coronary artery, MPD, PPD and MPD+PPD mixture (Example 5); assay type: in vivo, Wistar rats; settings: 40 mg/kg by pouring to stomach, one time after ligating, 24 h, relative to size of ventricles
Protocol: (§4) Methods: Rat model of AMI was established by ligating of coronary artery.
as §3
33 rats were randomly divided into model control group (physiological saline 5 mL/kg by pouring down throat), MPD treated group (40 mg/5 mL/kg, by pouring to stomach), PPD treated group (40 mg/5 mL/kg, by pouring to stomach) and MPD+PPD treated group (40 mg/5 mL/kg, by pouring to stomach). […]
as §2, with “5” for “4”

Rat model of AMI [4] = assay: Rat model of AMI by ligating of coronary artery, PPD and MPD by pouring to stomach (Example 4); assay type: in vivo, Wistar rats; settings: for Death rate in operation / Infarction size/whole heart size (%): experiment 2 (repeated), 40 mg/kg by pouring to stomach
Protocol: as §4, §3
(§5) 12 rats were randomly divided into model control group (physiological saline 5 mL/kg by pouring down throat) and PPD treated group (40 mg/5 mL/kg, by pouring to stomach), 6 rats per group. Rats were administrated one time after ligating, then be executed 24 hours later.
as §5, with “24” for “12”, “to stomach), MPD treated group (40 mg/5 mL/kg, by pouring to stomach)” for “down throat)”, “stomach).” for “stomach), 6 rats per group.”
as §2, with “5” for “4”

[5] = 20 mg/kg by femoral vein, 20 mg/kg

| SMILES | Infarction size/heart size (%) ([1]; 0.5 mg/kg) | Infarction size/ventricles size (%) ([1]; 0.5 mg/kg) | miocardial infarction size/ventricular size (%) ([2]; preliminary experiment, 40 mg/kg i.v., X ± SD, 40 mg/kg) | miocardial infarction size/ventricular size (%) ([2]; repeated experiment, dose-intensive 80 mg/kg by vena caudalis injection, 24 h) | miocardial infarction size/ventricular size (%) ([2]; repeated experiment, low-dose 20 mg/kg by vena caudalis injection, 24 h, 20 mg/kg) | miocardial infarction size/ventricular size (%) ([2]; repeated experiment, moderate dose 40 mg/kg by vena caudalis injection, 24 h, 40 mg/kg) | N-ST (epicardial electrogram) comparing with control group ([1]; 20 mg/kg by femoral vein, FIG. 4) | flow of aeteria coronaria comparing with control group ([1]; 20 mg/kg by femoral vein, FIG. 6) | miocardial consumption of oxygen (MCO) comparing with control group ([1]; 20 mg/kg by femoral vein, FIG. 7) | Infarction size/heart size (%) [1, 5] | Infarction size/ventricles size (%) [1, 5] | infarct size (IS) (%) (Rat model of AMI [3]) | Death rate in operation (Rat model of AMI [4]) | Infarction size/whole heart size (%) (Rat model of AMI [4]; one time after ligating, 24 h) | miocardial infarction size/ventricular size (%) (Rat model of AMI [4]; experiment 1, 40 mg/kg by pouring to stomach, one time after ligating, 24 h, n=6, 40 mg/kg) |
| --- | --- | --- | --- | --- | --- | --- | --- | --- | --- | --- | --- | --- | --- | --- | --- |
| COc1ccc([C@@H]2Sc3ccccc3N(CCN(C)C)C(=O)[C@@H]2OC(C)=O)cc1 [Diltiazem Hydrochloride, reference compound] | 1.81 ± 0.79 % | 4.36 ± 1.15 % | – | – | – | – | – | – | – | – | – | – | – | – | – |
| CO[C@]1(CC[C@@H](C)CO[C@@H]2O[C@H](CO)[C@@H](O)[C@H](O)[C@H]2O)O[C@H]2C[C@H]3[C@@H]4CC=C5C[C@@H](O[C@@H]6O[C@H](CO)[C@@H](O[C@@H]7O[C@@H](C)[C@H](O)[C@@H](O)[C@H]7O)[C@H](O)[C@H]6O[C@@H]6O[C@@H](C)[C@H](O)[C@@H](O)[C@H]6O)CC[C@]5(C)[C@H]4CC[C@]3(C)[C@H]2[C@@H]1C [MPD, Methylprotodioscin] | – | – | 33.4±8.09% | 30.62±9.46% | 37.89±8.41% | 32.32±6.92% | no significant difference | no significant difference | no significant difference | 2.74±0.33% | 7.30±0.97% | 36.24±3.74% | 0% (0/8) | 33.71 ± 6.73 % | – |
| CC1=C(CC[C@@H](C)CO[C@@H]2O[C@H](CO)[C@@H](O)[C@H](O)[C@H]2O)O[C@H]2C[C@H]3[C@@H]4CC=C5C[C@@H](O[C@@H]6O[C@H](CO)[C@@H](O[C@@H]7O[C@@H](C)[C@H](O)[C@@H](O)[C@H]7O)[C@H](O)[C@H]6O[C@@H]6O[C@@H](C)[C@H](O)[C@@H](O)[C@H]6O)CC[C@]5(C)[C@H]4CC[C@]3(C)[C@@H]12 [PPD, Pseudoprotodioscin] | – | – | – | – | – | – | – | – | – | – | – | 36.31±1.90% | 14.3% (1/7) | 36.31 ± 1.90 % | 36.25±7.20% |
